Reference: PubChem BioAssay (NCI)
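96-well plates; 48 h exposure; 5 concentrations. Endpoints by linear interpolation between flanking doses. Not reached: highest tested concentration assigned. Definition used: TGI = concentration required for complete inhibition of growth.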

Experiments:
Test in all cases: NCI anticancer screen, dose series, 48 h
OVCAR-8 ovarian = tested on: OVCAR-8 ovarian
KM20L2 colon = tested on: KM20L2 colon
XF 498 CNS = tested on: XF 498 CNS
SK-MEL-2 melanoma = tested on: SK-MEL-2 melanoma
SW-620 colon = tested on: SW-620 colon
UACC-62 melanoma = tested on: UACC-62 melanoma
SK-MEL-28 melanoma = tested on: SK-MEL-28 melanoma
SNB-19 CNS = tested on: SNB-19 CNS
DMS 273 small cell lung = tested on: DMS 273 small cell lung
786-0 renal = tested on: 786-0 renal
HT29 colon = tested on: HT29 colon
TK-10 renal = tested on: TK-10 renal
MALME-3M melanoma = tested on: MALME-3M melanoma
SK-MEL-5 melanoma = tested on: SK-MEL-5 melanoma
SNB-78 CNS = tested on: SNB-78 CNS
NCI-H226 lung = tested on: NCI-H226 lung
HL-60(TB) leukemia = tested on: HL-60(TB) leukemia
HCC-2998 colon = tested on: HCC-2998 colon
KM12 colon = tested on: KM12 colon
HCT-116 colon = tested on: HCT-116 colon
ACHN renal = tested on: ACHN renal
LXFL 529 NSCLC = tested on: LXFL 529 NSCLC
HCT-15 colon = tested on: HCT-15 colon
RXF-631 renal = tested on: RXF-631 renal
DMS 114 small cell lung = tested on: DMS 114 small cell lung
M14 melanoma = tested on: M14 melanoma
NCI-H460 lung = tested on: NCI-H460 lung
CCRF-CEM leukemia = tested on: CCRF-CEM leukemia
SNB-75 CNS = tested on: SNB-75 CNS
UO-31 renal = tested on: UO-31 renal
OVCAR-5 ovarian = tested on: OVCAR-5 ovarian
A549 NSCLC = tested on: A549 NSCLC
SN12C renal = tested on: SN12C renal
M19-MEL melanoma = tested on: M19-MEL melanoma
RPMI-8226 leukemia = tested on: RPMI-8226 leukemia
IGROV1 ovarian = tested on: IGROV1 ovarian
DLD-1 colon = tested on: DLD-1 colon
A498 renal = tested on: A498 renal
MOLT-4 leukemia = tested on: MOLT-4 leukemia
SF-295 CNS = tested on: SF-295 CNS
LOX IMVI melanoma = tested on: LOX IMVI melanoma
OVCAR-3 ovarian = tested on: OVCAR-3 ovarian
SK-OV-3 ovarian = tested on: SK-OV-3 ovarian
K-562 leukemia = tested on: K-562 leukemia
COLO 205 colon = tested on: COLO 205 colon
HOP-62 NSCLC = tested on: HOP-62 NSCLC
EKVX NSCLC = tested on: EKVX NSCLC
HOP-92 NSCLC = tested on: HOP-92 NSCLC
SF-539 CNS = tested on: SF-539 CNS
U251 CNS = tested on: U251 CNS
UACC-257 melanoma = tested on: UACC-257 melanoma
OVCAR-4 ovarian = tested on: OVCAR-4 ovarian
SF-268 CNS = tested on: SF-268 CNS
RXF 393 renal = tested on: RXF 393 renal
NCI-H23 lung = tested on: NCI-H23 lung
SR leukemia = tested on: SR leukemia
CAKI-1 renal = tested on: CAKI-1 renal
NCI-H522 lung = tested on: NCI-H522 lung
HOP-18 NSCLC = tested on: HOP-18 NSCLC

Measured: TGI

O=C(O)c1ccccc1NC(=O)C1CCCCC1
not listed: RXF 393 renal | NCI-H23 lung | SR leukemia | CAKI-1 renal | NCI-H522 lung | HOP-18 NSCLC
> 100 µM: all other assays above

C[C@H]1C(=O)CC[C@]2(C)CCC(C(C)(C)O)CC12O (stereo not given in full)
not listed: XF 498 CNS | M19-MEL melanoma
> 100 µM: all other assays above
